Test results reported in patent US11919965B2, “Methods of treating multiple myeloma with bispecific anti-BCMA x anti-CD3 antibodies” (Regeneron Pharmaceuticals, Inc., priority 2019, dated 2024).

How the values were obtained:
monkey BCMA-MMH = assay: SPR (Biacore 4000) binding kinetics at 25° C.
Description: (§1) The CM5 Biacore sensor surface was derivatized by amine coupling with a monoclonal mouse anti-human Fc antibody (GE, #BR-1008-39) to capture purified anti-BCMA mAbs and anti-BCMA×anti-CD3 bispecific mAbs. All Biacore binding studies were performed in a buffer composed of 0.01M HEPES pH 7.4, 0.15M NaCl, 3 mM EDTA, 0.05% v/v Surfactant P20 (HBS-ET running buffer). […] Antigen samples were then injected over the anti-BCMA and anti-BCMA×anti-CD3 bispecific mAbs captured surfaces at a flow rate of 30 μL/minute. Antibody-reagent association was monitored for 5 minutes while dissociation in HBS-ET running buffer was monitored for 10 minutes. All of the binding kinetics experiments were performed at 25° C. Kinetic association (ka) and dissociation (kd) rate constants were determined by fitting the real-time sensorgrams to a 1:1 binding model using Scrubber 2.0c curve fitting software. Binding dissociation equilibrium constants (KD) and dissociative half-lives (t1/2) were calculated from the kinetic rate constants as: […]

monkey BCMA-MFC = assay: SPR (Biacore 4000) binding kinetics at 25° C.
Description: as §1

[1] = tested on: BCMA-expressing MOLP-8 multiple myeloma tumors; assay: Xenogenic tumor model, MOLP-8 + human PBMC s.c. in NSG mice, dose response (Example 13); type: in vivo, mouse
Description: To determine the in vivo efficacy of anti-BCMA×anti-CD3 bispecific antibodies (Abs), a xenogenic tumor study was performed. Immunodeficient NOD.Cg-Prkdc^scidII2rg^tm1Wjl/SzJ (NSG) mice were subcutaneously implanted with a mixture of 5×10^6 BCMA-expressing MOLP-8 human multiple myeloma tumor cells and 1×10^6 human peripheral blood mononuclear cells (PBMC) isolated from a normal, healthy donor. […] The mice were administered these Abs twice per week for a total of seven doses, and tumor growth was assessed over 56 days. While the BCMA+ MOLP-8 tumors grew similarly in the vehicle- and CD3-binding control-treated mice, both BCMA×CD3 Abs that were tested prevented the growth of tumors in a dose-dependent manner in vivo.
Implantation and measurement of xenogenic tumors: NSG mice were subcutaneously implanted with a mixture of 5×10^6 BCMA-expressing MOLP-8 multiple myeloma cells and 1×10^6 PBMC derived from a normal, healthy donor. […] The mice were administered Abs twice per week for a total of seven doses. Tumor growth was measured by caliper twice per week for the duration of the experiment.
(§2) Calculation of xenogenic tumor growth and inhibition: In order to determine tumor volume by external caliper, the greatest longitudinal diameter (length in mm) and the greatest transverse diameter (width in mm) were determined. Tumor volumes based on caliper measurements were calculated by the formula: Volume (mm^3)=(length× width^2)/2.

[2] = tested on: BCMA-expressing NCI-H929 multiple myeloma tumors; assay: Xenogenic tumor model, NCI-H929 + human PBMC s.c. in NSG mice, treatment from implantation (Example 10); type: in vivo, mouse; settings: 4 mg/kg
Description: To determine the in vivo efficacy of BCMA×CD3 bispecific antibodies (Abs), a xenogenic tumor study was performed. Immunodeficient NOD.Cg-Prkdc^scidII2rgtm1Wjl/SzJ (NSG) mice were subcutaneously implanted with a mixture of 10×10^6 BCMA-expressing NCI-H929 multiple myeloma cells and 0.5×10^6 human peripheral blood mononuclear cells (PBMC) isolated from a normal donor. […] The mice were administered Abs twice per week for a total of three weeks, and tumor growth was assessed over 40 days. While BCMA^+ tumors grew similarly in the vehicle-, isotype control-, and CD3-binding control-treated mice, both BCMA×CD3 Abs that were tested prevented the growth of tumors in vivo.
Implantation and measurement of syngeneic tumors: NSG mice were subcutaneously implanted with a mixture of 10×10^6 BCMA-expressing NCI-H929 multiple myeloma cells and 0.5×10^6 PBMC derived from a normal donor. […] The mice were administered Abs twice per week for a total of three weeks. Tumor growth was measured with calipers twice per week for the duration of the experiment. Mice were sacrificed 40 days after tumor implantation.
as §2, with “syngeneic” for “xenogenic”

Chain of monkey BCMA-MMH (as listed by the source): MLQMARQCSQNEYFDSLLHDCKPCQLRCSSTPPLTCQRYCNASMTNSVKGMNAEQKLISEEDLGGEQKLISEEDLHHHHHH
Chain of monkey BCMA-MFC (as listed by the source): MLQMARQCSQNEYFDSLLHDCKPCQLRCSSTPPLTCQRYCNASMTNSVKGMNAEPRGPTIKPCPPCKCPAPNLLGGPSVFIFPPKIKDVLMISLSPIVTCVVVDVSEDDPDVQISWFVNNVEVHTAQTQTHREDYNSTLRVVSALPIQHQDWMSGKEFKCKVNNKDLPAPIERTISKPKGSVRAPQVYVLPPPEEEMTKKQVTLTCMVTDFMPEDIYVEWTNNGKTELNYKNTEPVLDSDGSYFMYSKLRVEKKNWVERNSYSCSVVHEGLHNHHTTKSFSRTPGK

REGN5459: anti-BCMA×anti-CD3 bispecific antibody: mAb21581 BCMA heavy chain, mAb7221G20 CD3 heavy chain and common light chain; SEQ ID NOs 126, 128, 129
ka (monkey BCMA-MMH): 223000 M⁻¹ s⁻¹ | kd (monkey BCMA-MMH): 0.00864 s⁻¹ | ka (monkey BCMA-MFC): 482000 M⁻¹ s⁻¹ | kd (monkey BCMA-MFC): 7.15e-05 s⁻¹ | Average Tumor Size (mm3) ± SEM on Day 3 ([1]; 0.04 mg/kg): 11.7 ± 2.1 mm3 | Average Tumor Size (mm3) ± SEM on Day 7 ([1]; 0.04 mg/kg): 37.0 ± 5.7 mm3 | Average Tumor Size (mm3) ± SEM on Day 10 ([1]; 0.04 mg/kg): 104 ± 23.0 mm3 | Average Tumor Size (mm3) ± SEM on Day 14 ([1]; 0.04 mg/kg): 356.7 ± 84.6 mm3 | Average Tumor Size (mm3) ± SEM on Day 17 ([1]; 0.04 mg/kg): 645.6 ± 140.9 mm3 | Average Tumor Size (mm3) ± SEM on Day 21 ([1]; 0.04 mg/kg): 1442.4 ± 310.7 mm3 | Average Tumor Size (mm3) ± SEM on Day 23 ([1]; 0.04 mg/kg): 2124.4 ± 444.1 mm3 | Average Tumor Size (mm3) ± SEM on Day 28 ([1]; 0.04 mg/kg): 1939.3 ± 840.6 mm3 | Average Tumor Size (mm3) ± SEM on Day 31 ([1]; 0.04 mg/kg): 2688.7 ± 1176.6 mm3 | Average Tumor Size (mm3) ± SEM on Day 35 ([1]; 0.04 mg/kg): 612.1 ± 0 mm3 | Average Tumor Size (mm3) ± SEM on Day 3 ([1]; 0.4 mg/kg): 14.0 ± 1.6 mm3 | Average Tumor Size (mm3) ± SEM on Day 7 ([1]; 0.4 mg/kg): 0 ± 0 mm3 | Average Tumor Size (mm3) ± SEM on Day 10 ([1]; 0.4 mg/kg): 0 ± 0 mm3 | Average Tumor Size (mm3) ± SEM on Day 14 ([1]; 0.4 mg/kg): 0 ± 0 mm3 | Average Tumor Size (mm3) ± SEM on Day 17 ([1]; 0.4 mg/kg): 0 ± 0 mm3 | Average Tumor Size (mm3) ± SEM on Day 21 ([1]; 0.4 mg/kg): 0 ± 0 mm3 | Average Tumor Size (mm3) ± SEM on Day 23 ([1]; 0.4 mg/kg): 0 ± 0 mm3 | Average Tumor Size (mm3) ± SEM on Day 28 ([1]; 0.4 mg/kg): 0 ± 0 mm3 | Average Tumor Size (mm3) ± SEM on Day 31 ([1]; 0.4 mg/kg): 0 ± 0 mm3 | Average Tumor Size (mm3) ± SEM on Day 35 ([1]; 0.4 mg/kg): 0 ± 0 mm3 | Average Tumor Size (mm3) ± SEM on Day 42 ([1]; 0.4 mg/kg): 0 ± 0 mm3 | Average Tumor Size (mm3) ± SEM on Day 56 ([1]; 0.4 mg/kg): 0 ± 0 mm3 | Average Tumor Size (mm3) ± SEM on Day 3 ([1]; 4 mg/kg): 12.9 ± 1.3 mm3 | Average Tumor Size (mm3) ± SEM on Day 7 ([1]; 4 mg/kg): 0.6 ± 0.6 mm3 | Average Tumor Size (mm3) ± SEM on Day 10 ([1]; 4 mg/kg): 0 ± 0 mm3 | Average Tumor Size (mm3) ± SEM on Day 14 ([1]; 4 mg/kg): 0 ± 0 mm3 | Average Tumor Size (mm3) ± SEM on Day 17 ([1]; 4 mg/kg): 0 ± 0 mm3 | Average Tumor Size (mm3) ± SEM on Day 21 ([1]; 4 mg/kg): 0 ± 0 mm3 | Average Tumor Size (mm3) ± SEM on Day 23 ([1]; 4 mg/kg): 0 ± 0 mm3 | Average Tumor Size (mm3) ± SEM on Day 28 ([1]; 4 mg/kg): 1.9 ± 1.9 mm3 | Average Tumor Size (mm3) ± SEM on Day 31 ([1]; 4 mg/kg): 3.8 ± 3.0 mm3 | Average Tumor Size (mm3) ± SEM on Day 35 ([1]; 4 mg/kg): 9.3 ± 7.5 mm3 | Average Tumor Size (mm3) ± SEM on Day 42 ([1]; 4 mg/kg): 12.8 ± 12.8 mm3 | Average Tumor Size (mm3) ± SEM on Day 56 ([1]; 4 mg/kg): 17.2 ± 17.2 mm3 | Average Tumor Size (mm3) ± SEM on Day 4 [2]: 26.5 ± 6.2 mm3 | Average Tumor Size (mm3) ± SEM on Day 7 [2]: 0 ± 0 mm3 | Average Tumor Size (mm3) ± SEM on Day 11 [2]: 0 ± 0 mm3 | Average Tumor Size (mm3) ± SEM on Day 14 [2]: 0 ± 0 mm3 | Average Tumor Size (mm3) ± SEM on Day 18 [2]: 0 ± 0 mm3 | Average Tumor Size (mm3) ± SEM on Day 21 [2]: 0 ± 0 mm3 | Average Tumor Size (mm3) ± SEM on Day 28 [2]: 0 ± 0 mm3 | Average Tumor Size (mm3) ± SEM on Day 40 [2]: 0 ± 0 mm3
